Measurements: patent US6166290A, “Glutathione-S-conjugate transport in plants” (The Trustees of the University of Pennsylvania, priority 1997, dated 2000)
“And” between values parts separate entries of the source, which are not always exact repeats. Identical values can stand only once. Like-named read-outs stand apart in the source and are kept apart here.

Assays:
[1] = biological target: T1, YCF1 (vacuolar membrane vesicles purified from DTY165 cells) (Saccharomyces cerevisiae, UniProt P39109); assay: biochemical; assay type: biochemical; details: for 109Cd.GS2 uptake as percentage of control: 10 min; for 109Cd uptake of Mono-Q fraction: 5 μM gramicidin-D
T1 construct: endogenous in cells; host or cells: S. cerevisiae DTY165 (wild type YCF1), vacuolar membrane vesicles
Procedure: (§1) In experiments involving cadmium transport, dithiothreitol and EGTA were removed from the suspension medium to prevent the attenuation of YCF1-dependent Cd^2+ transport otherwise exerted by these compounds. Vesiculated vacuolar membranes were subjected to three cycles of 50-fold dilution into simplified suspension medium (1.1 M glycerol, 5 mM Tris-Mes, pH 8.0), centrifugation at 100,000× g for 35 minutes and resuspension in the same medium before use.
(§2) Singly radiolabeled ^109 Cd.GSn and doubly radio-labeled ^109 Cd[^3 H].GS^n complexes were prepared by sequential gel-filtrationand anion-exchange chromatography of the reaction products generated by incubating 20 mM ^109 CdSO4 (78.4 mCi/mmol) with 40 mM GSH or 40 mM [^3 H]GSH (240 mCi/mmol) in 15 ml 10 mM phosphate buffer (pH 8.0) containing 150 mM KNO3 at 45° C. for 24 hours. For gel-filtration, 2 ml aliquots of the reaction mixture were applied to a column (40×1.5 cm ID) packed with water-equilibrated Sephadex G-1 5, eluted with deionized water and ^109 Cd and/or ^3 H in the fractions was measured by liquid scintillation counting. The fractions encompassed by each of the two ^109 Cd.GSn peaks identified were pooled, lyophilized and redissolved in 4 ml of loading buffer (5 mM Tris-Mes, pH 8.0). For anion-exchange chromatography, 0.5 ml aliquots of the resuspended lyophilizates from gel-filtration chromatography were applied to a Mono-Q HR5/5 column (Pharmacia) equilibrated with the same buffer. Elution was with a linear gradient of NaCl (0.5 ml/minute; 0-500 mM) dissolved in loading buffer. The individual fractions corresponding to the major peaks of ^109 Cd obtained from the Mono-Q column (one each for the peaks resolved by gel-filtration chromatography) were pooled, lyophilized and resuspended in 4 ml deionized water after liquid scintillation counting.
(§3) MgATP-energized, uncoupler-insensitive ^109 Cd^2+ uptake by vacuolar membrane vesicles was measured at 25° C. in 200 μl reaction volumes containing 3 mM ATP, 3 mM MgSO4, 5 μM gramicidin-D, 10 mM creatine phosphate, 16 units/ml creatine kinase, 50 mM KCl, 400 mM sorbitol, 25 mM Tris-Mes (pH 8.0) and the indicated concentrations of ^109 CdSO4, GSH or ^109 Cd- and/or ^3 H-labeled purified Cd.GSn complexes as described herein except that the wash media contained 100 μM CdSO4 in addition to sorbitol (400 mM) and Tris-Mes (3 mM, pH 8.0).

[2] = biological target: T1, YCF1 (vacuolar membrane vesicles purified from DTY165 cells); assay: [3H]DNP-GS uptake by vacuolar membrane vesicles purified from DTY165 cells; assay type: biochemical
Procedure: (§4) For the routine preparation of vacuolar membrane vesicles, 15 ml of stationary phase cultures of DTY165 or DTY167 were diluted into 1-liter volumes of fresh YPD medium, grown for 24 hours at 30° C. to an OD600 nm of approximately 0.8 and collected by centrifugation. After washing with distilled water, the cells were converted to spheroplasts with Zymolyase 20T (ICN) (Kim et al., 1994, supra) and intact vacuoles were isolated by flotation centrifugation of spheroplast lysates on Ficoll 400 step gradients as described by Roberts et al. (1991, Methods. Enzymol. 194:644-661). Both the spheroplast lysis buffer and Ficoll gradients contained 2 mg/ml bovine serum albumin, 1 μg/ml aprotinin, 1 μg/ml leupeptin, 1 μg/ml pepstatin, and 1 mM PMSF to minimize proteolysis. The resulting vacuole fraction was vesiculated in 5 mM MgCl2, 25 mM KCl, 10 mM Tris-Mes (pH 6.9) containing 2 mg/ml bovine serum albumin, 1 μg/ml aprotinin, 1 μg/ml leupeptin, 1 μg/ml pepstatin, and 1 mM PMSF, pelleted by centrifugation at 37,000× g for 25 min, and resuspended in suspension medium (1.1 M glycerol, 2 mM dithiothreitol, 1 mM Tris-EGTA, 2 mg/ml bovine serum albumin, 1 μg/ml aprotinin, 1 μg/ml leupeptin, 1 μg/ml pepstatin, 1 mM PMSF, 5 mM Tris-Mes, pH 7.6) (Kim et al., 1995, J. Biol. Chem. 270:2630-2635).
(§5) Unless otherwise indicated, [^3 H]DNP-GS uptake was measured at 25° C. in 200 μl reaction volumes containing 3 mM ATP, 3 mM MgSO4, 5 μM gramicidin-D, 10 mM creatine phosphate, 16 units/ml creatine kinase, 50 mM KC 1, 1 mg/ml bovine serum albumin, 400 mM sorbitol, 25 mM Tris-Mes (pH 8.0), and 66.2 μM [^3 H]DNP-GS (8.7 mCi/mmol) (Li et al., 1995, supra). […] Uptake was initiated by the addition of vacuolar membrane vesicles (10-15 μg of membrane protein), brief mixing of the samples on a vortex mixer and uptake was then allowed to proceed for 1-60 minutes. Uptake was terminated by the addition of 1 ml of ice-cold wash medium (400 mM sorbitol, 3 mM Tris-Mes, pH 8.0) and vacuum filtration of the suspension through prewetted Millipore HA cellulose nitrate membrane filters (pore diameter, 0.45 μm). The filters were rinsed twice with 1 ml of ice-cold wash medium and air-dried, and radioactivity was determined by liquid scintillation counting in BCS mixture (Amersham Corp.). Nonenergized [^3 H]DNP-GS uptake and extravesicular solution trapped on the filters were enumerated by the same procedure except that ATP and Mg^2 +were omitted from the uptake medium.

[3] = system: vacuolar membrane vesicles purified from DTY167 cells (ycf1Δ mutant); assay type: biochemical, Saccharomyces cerevisiae
Procedure: as §4, §5

[4] = system: vacuolar membrane vesicles purified from DTY167 cells (ycf1Δ mutant); assay type: biochemical, Saccharomyces cerevisiae; details: for 109Cd.GS2 uptake as percentage of control: 10 min; for 109Cd uptake of Mono-Q fraction: 5 μM gramicidin-D
Procedure: as §1, §2, §3

[5] = 5 μM gramicidin D, GSH, GSSG 1 mM, GS-conjugates 100 μM
[6] = 5 μM gramicidin D, GSH, GSSG 1 mM, GS-conjugates 100 μM, 10 min
[7] = 66.2 μM DNP-GS, 3 mM MgATP (omitted with MgAMP-PNP), MgAMP-PNP 3 mM, bafilomycin A1 0.5 μM, FCCP 5 μM, gramicidin D 5 μM, NH4Cl 1 mM
[8] = as Table 1 concentrations, 10 min
[9] = 50 μM 109Cd.GS2, bafilomycin A1 0.5 μM, FCCP 5 μM, gramicidin-D 5 μM, NH4Cl 1 mM
[10] = 50 μM (as Cd), pretreated 1:4 with 2-ME, 60° C., 10 minutes
[11] = 5 μM gramicidin D, read-out: I50 for MgATP-dependent, uncoupler-insensitive DNP-GS uptake

T1 sequence (P39109 whole entry): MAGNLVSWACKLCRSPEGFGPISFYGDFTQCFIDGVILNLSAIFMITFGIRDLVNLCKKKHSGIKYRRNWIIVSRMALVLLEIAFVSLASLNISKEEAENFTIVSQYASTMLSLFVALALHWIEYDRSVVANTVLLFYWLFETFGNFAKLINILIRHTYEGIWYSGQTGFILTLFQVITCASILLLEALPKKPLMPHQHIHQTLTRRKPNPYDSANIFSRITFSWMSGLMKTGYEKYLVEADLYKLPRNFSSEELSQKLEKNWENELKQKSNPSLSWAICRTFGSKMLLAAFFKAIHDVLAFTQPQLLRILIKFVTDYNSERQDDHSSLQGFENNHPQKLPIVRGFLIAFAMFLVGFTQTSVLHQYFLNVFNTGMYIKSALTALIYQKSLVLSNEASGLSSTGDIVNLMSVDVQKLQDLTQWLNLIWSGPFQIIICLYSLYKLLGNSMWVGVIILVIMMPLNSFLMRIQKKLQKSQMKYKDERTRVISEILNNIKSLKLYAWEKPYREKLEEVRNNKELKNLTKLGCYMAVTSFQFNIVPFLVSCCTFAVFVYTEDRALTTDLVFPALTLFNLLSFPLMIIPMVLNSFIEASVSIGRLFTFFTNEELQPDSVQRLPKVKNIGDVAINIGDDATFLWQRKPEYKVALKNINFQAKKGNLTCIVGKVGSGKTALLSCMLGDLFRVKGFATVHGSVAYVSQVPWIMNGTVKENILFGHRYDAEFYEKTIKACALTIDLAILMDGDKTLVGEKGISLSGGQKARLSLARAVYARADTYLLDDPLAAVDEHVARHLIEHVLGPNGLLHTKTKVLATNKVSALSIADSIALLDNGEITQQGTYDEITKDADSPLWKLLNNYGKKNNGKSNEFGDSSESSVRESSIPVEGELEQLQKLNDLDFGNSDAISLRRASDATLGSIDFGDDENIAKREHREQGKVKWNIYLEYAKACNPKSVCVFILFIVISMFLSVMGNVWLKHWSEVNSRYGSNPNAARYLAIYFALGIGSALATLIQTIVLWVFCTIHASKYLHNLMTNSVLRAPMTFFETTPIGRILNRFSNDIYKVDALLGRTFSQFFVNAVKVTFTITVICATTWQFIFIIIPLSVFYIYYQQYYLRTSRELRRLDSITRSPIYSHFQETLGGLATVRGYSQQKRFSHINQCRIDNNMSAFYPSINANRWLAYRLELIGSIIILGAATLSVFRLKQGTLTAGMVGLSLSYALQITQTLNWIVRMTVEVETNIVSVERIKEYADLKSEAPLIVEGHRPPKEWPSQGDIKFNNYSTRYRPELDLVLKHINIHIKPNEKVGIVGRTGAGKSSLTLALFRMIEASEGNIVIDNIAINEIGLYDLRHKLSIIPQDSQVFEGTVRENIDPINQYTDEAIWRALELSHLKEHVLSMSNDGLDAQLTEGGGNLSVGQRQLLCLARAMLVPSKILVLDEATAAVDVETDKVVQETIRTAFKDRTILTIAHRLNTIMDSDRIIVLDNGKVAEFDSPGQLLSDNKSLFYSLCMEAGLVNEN

In the case of `OCCS` [2-mercaptoethanol], the “inhibition of Cd2+ uptake by pretreatment of HMW-Cd.GS” value ([1]; pretreatment with 2-mercaptoethanol) is reported as > 80%.

In the case of `[N-]=[N+]=Nc1ccc(C(=O)CSC[C@H](NC(=O)CC[C@H](N)C(=O)O)C(=O)NCC(=O)O)cc1` [Azidophenacyl-GS], the “MgATP-dependent, uncoupler-insensitive DNP-GS uptake plus compound” value [2, 5] is reported as 16.0 ± 1.4 nmol/mg/10 minutes, the “MgATP-dependent, uncoupler-insensitive DNP-GS uptake as percentage of control” value [2, 6] is reported as 33.5% and the “inhibition of DNP-GS uptake” value ([2]; 100 μM compound) is reported as “about 50%”. For the same molecule, the “MgATP-dependent, uncoupler-insensitive DNP-GS uptake plus compound” value [3, 5] was 5.2 ± 0.3 nmol/mg/10 minutes and the “MgATP-dependent, uncoupler-insensitive DNP-GS uptake as percentage of control” value [3, 6] was 80.0%.

`CO/C1=C\C(C)=C\[C@@H](C)[C@@H](O)[C@@H](C)C/C(C)=C/C=C/[C@H](OC)[C@@H]([C@@H](C)[C@@H](O)[C@H](C)[C@@]2(O)C[C@@H](O)[C@H](C)[C@@H](C(C)C)O2)OC1=O` [Bafilomycin A1] was tested, and the “DNP-GS uptake plus the compound indicated” value [2, 7] was 43.2 ± 1.0 nmol/mg/10 minutes, the “DNP-GS uptake as percentage of control plus the compound indicated” value [2, 8] was 55.6% and the “DNP-GS uptake plus the compound indicated” value [3, 7] was 4.3 ± 0.3 nmol/mg/10 minutes. For the same molecule, the “DNP-GS uptake as percentage of control plus the compound indicated” value [3, 8] was 27.9%, the “109Cd.GS2 uptake plus addition” value [1, 9] was 81.8 ± 6.0 nmol/mg/10 minutes and the “109Cd.GS2 uptake as percentage of control” value ([1]; as Table 7 concentrations) was 76.6%. For the same molecule, the “decrease of MgATP-dependent Cd.GS2 uptake” value (from here on “decrease”) ([1]; text to Table 7) was 22%, the “109Cd.GS2 uptake plus addition” value [4, 9] was 12.8 ± 3.6 nmol/mg/10 minutes and the “109Cd.GS2 uptake as percentage of control” value ([4]; as Table 7 concentrations) was 74.0%.

For `N#CC(C#N)=NNc1ccc(OC(F)(F)F)cc1` [FCCP], the “DNP-GS uptake plus the compound indicated” value [2] was 47.4 ± 1.7 nmol/mg/10 minutes, the “DNP-GS uptake as percentage of control plus the compound indicated” value ([2]; dty165 vacuolar membrane vesicles, 10 min) was 61.0 and the “DNP-GS uptake plus the compound indicated” value [3] was 6.4 ± 0.3 nmol/mg/10 minutes. For the same molecule, the “DNP-GS uptake as percentage of control plus the compound indicated” value ([3]; dty167 vacuolar membrane vesicles, 10 min) was 41.8, the “109Cd.GS2 uptake plus addition” value [1] was 62.2 ± 11.4 nmol/mg/10 minutes and the “decrease” value ([1]; vacuolar membrane vesicles) was 22%. The “109Cd.GS2 uptake as percentage of control” value ([1]; vacuolar membrane vesicles) was 58.8, the “109Cd.GS2 uptake plus addition” value [4] was 10.2 ± 1.6 nmol/mg/10 minutes and the “109Cd.GS2 uptake as percentage of control” value ([4]; vacuolar membrane vesicles) was 59.0.

With `N[C@@H](CCC(=O)N[C@@H](C[S][Cd][S]C[C@H](NC(=O)CC[C@H](N)C(=O)O)C(=O)NCC(=O)O)C(=O)NCC(=O)O)C(=O)O` [HMW-Cd.GS, bis(glutathionato)cadmium] the “Vmax for MgATP-dependent, uncoupler-insensitive Cd.GS2 uptake” value [1] was 157.2±60.7 nmol/mg/10 minutes, the “109Cd.GS2 uptake, control” value ([1]; 50 μM 109Cd.GS2, no addition) was 105.8 ± 12.4 nmol/mg/10 minutes and the “109Cd uptake of Mono-Q fraction” value ([1]; 50 μM (as Cd)) was 66.3 ± 2.7 nmol/mg/10 min. For the same molecule, the “109Cd uptake after 2-ME pretreatment” value [1, 10] was 11.9 ± 2.4 nmol/mg/10 min, the “Vmax for MgATP-dependent, uncoupler-insensitive Cd.GS2 uptake” value ([1]; listed as Cd.GS2) was 157.2±30.4 nmol/mg/10 minutes and the Km ([1]; read-out: Km for MgATP-dependent, uncoupler-insensitive Cd.GS2 uptake) was 39.1 ± 14.1 µM. The “109Cd.GS2 uptake, control” value ([4]; 50 μM 109Cd.GS2, no addition) was 17.3 ± 2.7 nmol/mg/10 minutes, the “109Cd uptake of Mono-Q fraction” value ([4]; 50 μM (as Cd)) was 5.6 ± 2.6 nmol/mg/10 min and the “109Cd uptake after 2-ME pretreatment” value [4, 10] was 4.4 ± 3.0 nmol/mg/10 min.

With `Nc1ncnc2c1ncn2[C@@H]1O[C@H](COP(=O)(O)OP(=O)(O)NP(=O)(O)O)[C@@H](O)[C@H]1O` [MgAMP-PNP] the “DNP-GS uptake plus the compound indicated” value [2, 7] was 2.5 ± 0.5 nmol/mg/10 minutes, the “DNP-GS uptake as percentage of control plus the compound indicated” value [2, 8] was 3.2% and the “DNP-GS uptake plus the compound indicated” value [3, 7] was 1.4 ± 0.3 nmol/mg/10 minutes. For the same molecule, the “DNP-GS uptake as percentage of control plus the compound indicated” value [3, 8] was 9.1%.

`Cl.N` [NH4 Cl, Ammonium chloride] was tested, and the “DNP-GS uptake plus the compound indicated” value [2, 7] was 69.1 ± 2.9 nmol/mg/10 minutes, the “DNP-GS uptake as percentage of control plus the compound indicated” value [2, 8] was 88.9% and the “DNP-GS uptake plus the compound indicated” value [3, 7] was 14.9 ± 0.7 nmol/mg/10 minutes. For the same molecule, the “DNP-GS uptake as percentage of control plus the compound indicated” value [3, 8] was 96.8%, the “109Cd.GS2 uptake plus addition” value [1, 9] was 89.8 ± 8.2 nmol/mg/10 minutes and the “109Cd.GS2 uptake as percentage of control” value ([1]; as Table 7 concentrations) was 84.8%. The “decrease” value ([1]; text to Table 7) was 15%, the “109Cd.GS2 uptake plus addition” value [4, 9] was 10.0 ± 1.7 nmol/mg/10 minutes and the “109Cd.GS2 uptake as percentage of control” value ([4]; as Table 7 concentrations) was 57.8%.

In the case of `CC[C@]1(O)C[C@@H]2CN(CCc3c([nH]c4ccccc34)[C@@](C(=O)OC)(c3cc4c(cc3OC)N(C)[C@H]3[C@@](O)(C(=O)OC)[C@H](OC(C)=O)[C@]5(CC)C=CCN6CC[C@]43[C@@H]65)C2)C1` [Vinblastine], the IC50 [2, 11] is reported as 89 µM and 88.8 µM and the IC50 [3, 11] is reported as > 500 µM.

For MgATP, the “Vmax(MgATP) of uncoupler-insensitive DNP-GS uptake” value ([2]; 66.2 μM DNP-GS, 5 μM gramicidin D) was 38.4±5.6 nmol/mg/10 minutes, the “DNP-GS uptake as percentage of control, MgATP omitted” value ([2]; --MgATP, 66.2 μM DNP-GS) was 2.8% and the “DNP-GS uptake, MgATP omitted” value ([2]; --MgATP, 66.2 μM DNP-GS) was 2.2 ± 0.4 nmol/mg/10 minutes. The Km ([2]; read-out: Km(MgATP) of uncoupler-insensitive DNP-GS uptake, 66.2 μM DNP-GS, 5 μM gramicidin D, 10 minutes) was 86.5 ± 29.5 µM, the “DNP-GS uptake as percentage of control, MgATP omitted” value ([3]; --MgATP, 66.2 μM DNP-GS) was 9.7% and the “DNP-GS uptake, MgATP omitted” value ([3]; --MgATP, 66.2 μM DNP-GS) was 1.5 ± 0.6 nmol/mg/10 minutes.

For mono(glutathionato)cadmium [LMW-Cd.GS], the “109Cd uptake of Mono-Q fraction” value ([1]; 50 μM (as Cd)) was 4.4 ± 0.8 nmol/mg/10 min, the “uptake of LMW-109Cd.GS” value ([1]; all of the concentrations examined) was “negligible” and the “109Cd uptake of Mono-Q fraction” value ([4]; 50 μM (as Cd)) was 3.9 nmol/mg/10 min.
